From patent publication US8569374B2, “NADPH oxidase inhibition pharmacotherapies for obstructive sleep apnea syndrome and its associated morbidities” (The Trustees of the University of Pennsylvania, priority 2004, dated 2013)
“Also recorded” adds a separate entry of the source.

Tests used:
TNF-α mRNA = assay: Taqman real-time PCR of TNF-α gene response to LTIH, lateral basal forebrain; assay type: in vivo, mice
Text: A detailed description of the long-term intermittent hypoxia (LTIH) protocol was recently published. An automated nitrogen/oxygen delivery profile system (Oxycycler model A84XOV; Biospherix, Redfield, N.Y.) produced brief reductions in housing chamber ambient oxygen levels from 21% to 10% for 5 sec every 90 sec, resulting in arterial oxyhemoglobin saturation fluctuations between 95-98% and 83-86%. Sham LTIH, with ambient FIO2 fluctuations from 21% to 19% every 90 sec, held arterial oxyhemoglobin values constant between 96-98%. Both conditions were produced for 10 hr of the lights-on period for a total of 8 wks. Humidity, ambient CO2 and environmental temperature were held constant. To determine if LTIH results in lasting increases in NADPH oxidase and microglial gene responses, real-time Taqman PCR was performed on laser-captured microdissections or macropunches of selected brain regions in mice exposed to sham LTIH or LTIH, two weeks into recovery to parallel sleep studies, using our methods, as previously published (12, 25). Real-time measurement of a NADPH oxidase subunit (p67^phox). To accomplish this, two weeks following conditions of either sham LTIH or LTIH, mice were perfused with PBS; brains were immediately frozen and sectioned (10 μm) for laser-capture microdissections of the following wake-active or hypoxia sensitive regions: frontal cortex (layer V), nucleus basalis […]/substantia inominata/horizontal diagonal band, hippocampus CA1, striatum, lateral hypothalamus, dorsal raphe nucleus, and locus coeruleus, or the following sleep-active adjacent brain regions: median septal diagonal band, medial preoptic area, and ventrolateral preoptic area, collecting 100 captures (40 μm diameter) per region in each mouse (n=6 mice/condition). RNA was purified and cDNA created for primer sets for primer/probe sets in Table 1, for Taqman real time PCR (SDS-7900HT, ABI). […] A second series of mice used for LTIH gene responses were gp91^phox-/- and +/+ mice exposed to either sham LTIH or LTIH for proinflammatory responses. […]

iNOS mRNA = assay: Taqman real-time PCR of iNOS gene response to LTIH, lateral basal forebrain; assay type: in vivo, mice; conditions: apocynin throughout LTIH
Text: (§1) A detailed description of the long-term intermittent hypoxia (LTIH) protocol was recently published. An automated nitrogen/oxygen delivery profile system (Oxycycler model A84XOV; Biospherix, Redfield, N.Y.) produced brief reductions in housing chamber ambient oxygen levels from 21% to 10% for 5 sec every 90 sec, resulting in arterial oxyhemoglobin saturation fluctuations between 95-98% and 83-86%. Sham LTIH, with ambient FIO2 fluctuations from 21% to 19% every 90 sec, held arterial oxyhemoglobin values constant between 96-98%. Both conditions were produced for 10 hr of the lights-on period for a total of 8 wks. Humidity, ambient CO2 and environmental temperature were held constant. To determine if LTIH results in lasting increases in NADPH oxidase and microglial gene responses, real-time Taqman PCR was performed on laser-captured microdissections or macropunches of selected brain regions in mice exposed to sham LTIH or LTIH, two weeks into recovery to parallel sleep studies, using our methods, as previously published (12, 25). Real-time measurement of a NADPH oxidase subunit (p67^phox). […]

iNOS = iNOS activity in lateral basal forebrain homogenates ([14C] L-arginine to L-citrulline conversion); assay type: in vivo, mice; conditions: for LTIH increase in iNOS activity: apocynin throughout LTIH
Procedure: FIG. 5. NADPH oxidase inhibition confers resistance to the long-term intermittent hypoxia (LTIH) proinflammatory response. Proinflammatory gene expression was measured in micropunches in the lateral basal forebrains in gp91^phox wild type controls (gp91^phox WT, n=10) and gp91^phox null mice (gp91^phox null, n=10) for A, TNF-a; B, COX-2 and C, iNOS mRNA copies/2 µg total RNA. D. Total NOS activity (left columns), measured as L-arginine conversion of [^14C] L-arginine to L-citrulline and iNOS activity (right columns) was measured using […] S-Ethyl-N-[4-trifluoromethyl)phenyl]isothiourea (ETPI) added to homogenates (12). […] A detailed description of the long-term intermittent hypoxia (LTIH) protocol was recently published. An automated nitrogen/oxygen delivery profile system (Oxycycler model A84XOV; Biospherix, Redfield, N.Y.) produced brief reductions in housing chamber ambient oxygen levels from 21% to 10% for 5 sec every 90 sec, resulting in arterial oxyhemoglobin saturation fluctuations between 95-98% and 83-86%. Sham LTIH, with ambient FIO2 fluctuations from 21% to 19% every 90 sec, held arterial oxyhemoglobin values constant between 96-98%. Both conditions were produced for 10 hr of the lights-on period for a total of 8 wks. Humidity, ambient CO2 and environmental temperature were held constant. To determine if NADPH oxidase inhibition would also prevent LTIH gene responses, a third series of mice examined for gene responses were WT mice treated systemically throughout LTIH or sham LTIH with 3 mg/kg/day apocynin (Sigma-Aldrich) in DMSO, DMSO or PBS delivered subcutaneously (n=10/group) by way of micro-osmotic pump (1002, Durect, Cupertino, Calif.). […] Lateral basal forebrain iNOS activity was compared in mice treated with or without apocynin throughout LTIH (FIG. 5D). Apocynin therapy, relative to saline therapy had no effect on baseline (sham LTIH) iNOS activity. […] Thus, apocynin therapy throughout LTIH prevented the expected increase in iNOS activity.

WT mice exposed to LTIH = assay: Sleep/wake recordings and murine multiple sleep latency test after long-term intermittent hypoxia (LTIH); assay type: in vivo; conditions: for sleep latency: vs LTIH DMSO vehicle-treated mice
Text: Ten-week old male C57BL/6J (B6) mice, gp91^phox−/− mice (B6.129S6-Cybb^tmldin) backcrossed 12 generations to C57BL/6J 000664 and gp91^phox+/+ (WT) backcrossed substrain C57BL/6J 000664 mice (Jackson Laboratory, Bar Harbor, Me.) were studied. Methods and study protocols were approved in full by the Institutional Animal Care and Use Committee of the University of Pennsylvania, conforming with the revised NIH Office of Laboratory Animal Welfare Policy. Food and water were provided ad libitum. Mice were confirmed pathogen free at the time of studies.
A detailed description of the long-term intermittent hypoxia (LTIH) protocol was recently published. An automated nitrogen/oxygen delivery profile system (Oxycycler model A84XOV; Biospherix, Redfield, N.Y.) produced brief reductions in housing chamber ambient oxygen levels from 21% to 10% for 5 sec every 90 sec, resulting in arterial oxyhemoglobin saturation fluctuations between 95-98% and 83-86%. Sham LTIH, with ambient FIO2 fluctuations from 21% to 19% every 90 sec, held arterial oxyhemoglobin values constant between 96-98%. Both conditions were produced for 10 hr of the lights-on period for a total of 8 wks. Humidity, ambient CO2 and environmental temperature were held constant.
To determine if NADPH oxidase inhibition would also prevent LTIH gene responses, a third series of mice examined for gene responses were WT mice treated systemically throughout LTIH or sham LTIH with 3 mg/kg/day apocynin (Sigma-Aldrich) in DMSO, DMSO or PBS delivered subcutaneously (n=10/group) by way of micro-osmotic pump (1002, Durect, Cupertino, Calif.).
After 8 wks of LTIH or sham LTIH exposures, mice were returned to normoxic conditions for 1 wk. Surgical implantation of electrodes and electrophysiological recordings followed using previously described electrode implantation methods (32). Following 3 d post-operative recovery, mice were connected to recording cables in individual cages, and 4 d later sleep recordings were initiated (beginning 2 wk into recovery from LTIH). Baseline sleep was recorded for 5 days. On recording day 6, a baseline murine multiple sleep latency test (MMSLT) was performed (4 nap opportunities between 2 p.m. and 4 p.m.) to measure baseline sleep propensity (33). On recording day 7, sleep deprivation was performed for 6 hours of the light period (8 a.m. to 2 p.m.), followed by a second MSLT and then recovery sleep was recorded for 12 h. The behavioral state acquisition and analysis program used for these studies was ACQ 3.4 (34), with modifications and behavioral state parameters as previously described (7, 9, 32). Primary variables were total sleep time/24 hr, total NREM sleep time/24 hr and REM sleep time/24 hr, and average sleep latency, before and after short-term sleep loss.
To further investigate the role of NADPH oxidase in the LTIH-induced hypersomnolence and sleepiness, a series of WT mice were implanted with osmotic pumps to systemically deliver either a selective NADPH oxidase inhibitor, apocynin at 3 mg/kg/day, vehicle (dimethylsulfoxide, DMSO) or buffered saline throughout LTIH exposure for 8 wks. Pumps were removed and mice were implanted for sleep recordings as described above for studies in gp91^phox null mice. Apocynin therapy prevented both LTIH reduced wake times and shortened sleep latency.

COX-2 mRNA = assay: Taqman real-time PCR of COX-2 gene response to LTIH, lateral basal forebrain; assay type: in vivo, mice; conditions: apocynin in DMSO vehicle throughout LTIH
Text: as §1

[1] = apocynin 3 mg/kg/day throughout LTIH

COc1cc(C(C)=O)ccc1O [apocynin, 4-hydroxy-3′-methoxy-acetophenon]
LTIH increase in TNF-α gene expression (vs sham LTIH) (TNF-α mRNA; apocynin throughout LTIH): completely prevented the increases in TNF-α gene expression
TNF-α response as % of the saline LTIH response (TNF-α mRNA; apocynin throughout LTIH): 7%
LTIH TNF-α response, Apo vs. DMSO, % lower (TNF-α mRNA; apocynin vs DMSO vehicle during LTIH): 73%
reduction in iNOS mRNA (iNOS mRNA): 94%
reduction in iNOS activity, apocynin treated vs. untreated mice (iNOS; LTIH): 60%
LTIH increase in iNOS activity (iNOS): prevented the LTIH increase in iNOS activity
LTIH increase in iNOS activity (iNOS; listed as Apocynin): prevents the anticipated LTIH increase in iNOS activity
baseline (sham LTIH) iNOS activity, relative to saline therapy (iNOS; sham LTIH): no effect
NREMS time (WT mice exposed to LTIH; apocynin 3 mg/kg/day by osmotic pump throughout 8 wks LTIH, relative to saline and DMSO vehicle): reduced NREMS time
wake time/24 hr (WT mice exposed to LTIH; apocynin 3 mg/kg/day by osmotic pump throughout 8 wks LTIH, relative to saline and DMSO vehicle, 2 wk into recovery): increased wake times; also recorded: prevented LTIH-induced impaired wakefulness and hypersomnolence
sleep latency vs WT mice without intervention or sham LTIH (WT mice exposed to LTIH; [1]): not significantly different
sleep latency (WT mice exposed to LTIH; [1]): significantly higher than LTIH DMSO vehicle-treated mice
sleep latency (WT mice exposed to LTIH; apocynin 3 mg/kg/day throughout LTIH, listed as Apocynin): prevented LTIH reduced sleep latency
COX-2 gene expression, reduction relative to sham LTIH (COX-2 mRNA): 65%
LTIH COX-2 response (COX-2 mRNA): completely blocked the LTIH COX-2 response
